Holding throughout (assay type): cell-based
One assay deals with T1, human P2X2/3 receptors (Homo sapiens, UniProt P56373+Q9UBL9).
T1 construct: expressed in transfected cells; host or cells: human astrocytoma 1321N1 (1312N1 [sic])
T1 sequence (P56373 1-397): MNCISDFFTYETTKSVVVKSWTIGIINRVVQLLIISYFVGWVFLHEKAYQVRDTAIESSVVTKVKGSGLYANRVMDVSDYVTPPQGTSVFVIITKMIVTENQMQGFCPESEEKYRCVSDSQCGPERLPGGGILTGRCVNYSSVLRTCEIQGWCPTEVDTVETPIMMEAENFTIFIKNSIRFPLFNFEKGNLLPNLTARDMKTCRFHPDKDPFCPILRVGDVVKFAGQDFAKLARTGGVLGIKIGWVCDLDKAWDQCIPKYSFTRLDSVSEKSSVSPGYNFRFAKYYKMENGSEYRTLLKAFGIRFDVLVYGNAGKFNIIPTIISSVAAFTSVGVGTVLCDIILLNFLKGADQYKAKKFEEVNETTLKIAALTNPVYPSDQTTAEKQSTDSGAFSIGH
T1 sequence (Q9UBL9 1-471): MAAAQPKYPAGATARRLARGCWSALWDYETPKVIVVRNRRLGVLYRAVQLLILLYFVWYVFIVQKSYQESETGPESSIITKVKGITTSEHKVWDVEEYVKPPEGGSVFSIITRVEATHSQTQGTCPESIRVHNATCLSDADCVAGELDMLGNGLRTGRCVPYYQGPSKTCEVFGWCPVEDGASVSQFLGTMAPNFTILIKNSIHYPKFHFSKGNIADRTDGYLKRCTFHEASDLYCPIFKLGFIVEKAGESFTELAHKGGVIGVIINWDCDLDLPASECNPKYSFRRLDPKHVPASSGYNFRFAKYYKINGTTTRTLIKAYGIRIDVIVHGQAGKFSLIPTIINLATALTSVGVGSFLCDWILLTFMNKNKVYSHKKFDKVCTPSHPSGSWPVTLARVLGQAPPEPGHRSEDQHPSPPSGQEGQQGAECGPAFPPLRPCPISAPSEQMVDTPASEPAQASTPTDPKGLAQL
In words: Intracellular calcium measurement, antagonist activity at human P2X2/3 receptors (hP2X23 1321N1), Fluo8. Particulars: for IC50: column 4); 1321N1 cells, human P2X2/3, Fluo8, agonist ATP at EC50; read-out: 4) hP2X2/3 IC50 [nM] (1321N1); for hP2X23/hP2X3* Selectivity (1321N1): ratio of column 4) hP2X2/3 to column 3) hP2X3, 1321N1. The method, then: (§1) 3) And 4) Intracellular Calcium Measurement to Compare Antagonist Activity at Human P2X3 Receptors (hP2X3 1321N1) and at Human P2X2/3 Receptors (hP2X23 1321N1)
(§2) The comparison of antagonistic activity at the P2X3 versus the P2X2/3 receptor of the compounds of the invention were performed by use of recombinant cell lines. These cell lines derived originally from the human astrocytoma cell line […] (Macintyre E H, Pontén J, Vatter A E. Acta Pathol Microbiol Scand A. 1972; 80(2):267-83). The cell lines are stably transfected with the human P2X3 receptor forming homotrimeric P2X3 receptors or are co-transfected with P2X2 and P2X3 forming heterotrimeric P2X2/3 receptors. Stimulation of the receptors with the agonist ATP leads to a conformational change of the receptors and influx of extracellular calcium ions through the open ion channel. The cytoplasmatic calcium transient is detected via the calcium sensitive dye Fluo8. The strength of Fluo8 fluorescence signal corresponds to the level of receptor activation. An inhibitor would decrease the signal depending on its potency and concentration. Fluorescence was measured by use of a suitable fluorescence reader.
(§3) On the day before the assay, the cells were plated in culture medium (DMEM high glucose, 10% FCS, 1% MEM non-essential amino acids, 4 mM Glutamax) in 384-well poly-D-lysine coated microtiter plates and kept in a cell incubator (96% humidity, 5% v/v CO2, 37° C.). On the day of the assay medium was exchanged by Fluo8 containing buffer and incubated for 60 minutes. Test compounds were added at various concentrations and plates were incubated for 10 minutes. In the fluorescence reader a 3 seconds baseline measurement was performed and the agonist ATP was applied at EC50 concentration of the respective receptor during constant fluorescence measurement for 120 seconds.
For orientation: Calcium flux is commonly read through the fluorescence of an indicator in the cells.

For assay [1], the target named is T2, human P2X3 receptor (Homo sapiens, UniProt P56373).
T2 sequence (P56373 1-397): T1 sequence (P56373 1-397)
The assay is described as follows: Intracellular calcium measurement to assess antagonist activity at human P2X3 receptors (hP2X3 CHO), photina luminescence. Conditions: column 2), CHO cells, agonist α,β-methylene-ATP at EC50. Set-up: expressed in transfected cells; host or cells: Chinese hamster ovary (CHO) cells. In short, it runs like this: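 CHO cells stably expressing human P2X3 and mitochondrial photina, plated the day before at 30 °C, then loaded 3 h at 37 °C in 2 mM Ca-tyrode buffer with 5 μg/ml coelenterazine. Agonist-evoked calcium luminescence read immediately; inhibition seen as signal decrease.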

Assay [2] deals with T2, human P2X3 receptor. In words: Intracellular calcium measurement, antagonist activity at human P2X3 receptors (hP2X3 1321N1), Fluo8. Further details: expressed in transfected cells; host or cells: human astrocytoma 1321N1 (1312N1 [sic]). Particulars: column 3); 1321N1 cells, human P2X3, Fluo8, agonist ATP at EC50. The procedure: as §1, §2, §3

A value given as a limit tells only on which side of the number the result lay.

The text below walks through data of US11319324B2, “Pyrazolo-pyrrolo-pyrimidine-dione derivatives as P2X3 inhibitors” (Bayer Aktiengesellschaft, priority 2017, dated 2022).

For the compound `CC(C)N1Cc2c(n(CC(=O)Nc3ccc(F)cn3)c3cc(C4CCN(S(C)(=O)=O)C4)nn3c2=O)C1=O` (racemic) [Example 270, N-(5-fluoropyridin-2-yl)-2-{2-[(±)-1-(methylsulfonyl)pyrrolidin-3-yl]-5,8-dioxo-6-(propan-2-yl)-5,6,7,8-tetrahydro-4H-pyrazolo[1,5-a]pyrrolo[3,4-d]pyrimidin-4-yl}acetamide], the IC50 amounted to 6650 nM on human P2X2/3 receptors, 29 nM at human P2X3 receptor [1] and 57 nM at human P2X3 receptor [2]. Besides, the “hP2X23/hP2X3* Selectivity (1321N1)” value at human P2X2/3 receptors was 118.
With `CCc1cc2n(CC(=O)Nc3ccc(F)cn3)c3c(c(=O)n2n1)CN(C1CCN(C(=O)NC(C)C)C1)C3=O` (racemic) [Example 274, (±)-3-[2-ethyl-4-{2-[(5-fluoropyridin-2-yl)amino]-2-oxoethyl}-5,8-dioxo-5,8-dihydro-4H-pyrazolo[1,5-a]pyrrolo[3,4-d]pyrimidin-6(7H)-yl]-N-(propan-2-yl)pyrrolidine-1-carboxamide], the IC50 at human P2X2/3 receptors is > 32000 nM; on human P2X3 receptor [1] it was 187 nM; on human P2X3 receptor [2], 125 nM. Further, the “hP2X23/hP2X3* Selectivity (1321N1)” value at human P2X2/3 receptors is recorded as >256.
The corresponding values for `CC(O)c1cc2n(CC(=O)Nc3ccc(F)cn3)c3c(c(=O)n2n1)CN(C(C)C)C3=O` (racemic) [Example 275, N-(5-fluoropyridin-2-yl)-2-{2-[(±)-1-hydroxyethyl]-5,8-dioxo-6-(propan-2-yl)-5,6,7,8-tetrahydro-4H-pyrazolo[1,5-a]pyrrolo[3,4-d]pyrimidin-4-yl}acetamide] are > 32000 nM, 173 nM, 210 nM and >152.
For the compound `CCc1cc2n(CC(=O)Nc3ccc(F)cn3)c3c(c(=O)n2n1)CN(C1CCNC1)C3=O` (single isomer, unassigned) [Example 277, 2-{2-ethyl-5,8-dioxo-6-[pyrrolidin-3-yl]-5,6,7,8-tetrahydro-4H-pyrazolo[1,5-a]pyrrolo[3,4-d]-pyrimidin-4-yl}-N-(5-fluoropyridin-2-yl)acetamide], the figures for the IC50 on human P2X2/3 receptors, at human P2X3 receptor [1] and at human P2X3 receptor [2] were 7300 nM, 150 nM and 110 nM, respectively. For the same compound, the “hP2X23/hP2X3* Selectivity (1321N1)” value on human P2X2/3 receptors is 66.
The matching figures for `CCc1cc2n(CC(=O)Nc3ccc(F)cn3)c3c(c(=O)n2n1)CN(C1CCNC1)C3=O` (single isomer, unassigned) [Example 278, 2-{2-ethyl-5,8-dioxo-6-[pyrrolidin-3-yl]-5,6,7,8-tetrahydro-4H-pyrazolo[1,5-a]pyrrolo[3,4-d]pyrimidin-4-yl}-N-(5-fluoropyridin-2-yl)acetamide]: > 32000 nM, 650 nM, 675 nM and >47.
Consider `CC(C)N1Cc2c(n(CC(=O)Nc3ccc(F)cn3)c3cc(C4CC4)nn3c2=O)C1=O` [Example 56], for which the IC50 turned out to be 9950 nM at human P2X2/3 receptors, 73 nM at human P2X3 receptor [1] and 185 nM at human P2X3 receptor [2]. For the same compound, on human P2X2/3 receptors, the “hP2X23/hP2X3* Selectivity (1321N1)” value is given as 54.
As to `COCc1cc2n(CC(=O)Nc3ccc(F)cn3)c3c(c(=O)n2n1)CN(C(C)C)C3=O` [Example 57], the IC50 was > 32000 nM on human P2X2/3 receptors, 125 nM at human P2X3 receptor [1] and 265 nM on human P2X3 receptor [2]. Moreover, on human P2X2/3 receptors, the “hP2X23/hP2X3* Selectivity (1321N1)” value was >121.
The corresponding values for `CC(C)N1Cc2c(n(CC(=O)Nc3ccc(F)cn3)c3cc(C4CCOCC4)nn3c2=O)C1=O` [Example 58] are 9850 nM, 24 nM, 36 nM and 277.
The corresponding values for `Cc1ccc(NC(=O)Cn2c3c(c(=O)n4nc(C5CCOCC5)cc24)CN(C(C)C)C3=O)nc1` [Example 59] are 13000 nM, 83 nM, 145 nM and 90.
Regarding `CCc1cc2n(CC(=O)Nc3ccc(Cl)cn3)c3c(c(=O)n2n1)CN(CC1CCOC1)C3=O` (stereo not shown) [Example 60], the IC50 on human P2X2/3 receptors is > 19800 nM; on human P2X3 receptor [1], 105 nM; on human P2X3 receptor [2] it was 480 nM. Besides, the “hP2X23/hP2X3* Selectivity (1321N1)” value on human P2X2/3 receptors is >41.
